Results: ChEMBL document CHEMBL5523756, “Molecular Transformers: Adaptive Multitarget Ligands for Esterase-Induced Transition from Analgesics to Anesthetics” (J Med Chem, 2024)
Activity calls are given as the source filed them. The calls are words filed in the database; no cut-off is given here.

How the values were obtained:
[1] = (§1) Toxicity in Sprague-Dawley rat assessed as histopathological changes in heart at 19 mg/kg administered as continuous infusion followed by maintenance at 3.25 mg/kg/min for 0 to 20 mins, 2.5 mg/kg/min for 20 to 30 mins and 2 mg/kg/min for 30 to 60 mins and measured after 14 days by H and E staining based analysis; assay type: organism-based; conditions: in vivo, other, 336 h, route par, time 14 day
[2] = target: Cytochrome P450 2D6 (Homo sapiens, UniProt P10635); experiment: Inhibition of CYP2D6 (unknown origin) using dextromethorphan as substrate at 10 uM; assay type: ADME
Sequence of Cytochrome P450 2D6 (P10635 whole entry): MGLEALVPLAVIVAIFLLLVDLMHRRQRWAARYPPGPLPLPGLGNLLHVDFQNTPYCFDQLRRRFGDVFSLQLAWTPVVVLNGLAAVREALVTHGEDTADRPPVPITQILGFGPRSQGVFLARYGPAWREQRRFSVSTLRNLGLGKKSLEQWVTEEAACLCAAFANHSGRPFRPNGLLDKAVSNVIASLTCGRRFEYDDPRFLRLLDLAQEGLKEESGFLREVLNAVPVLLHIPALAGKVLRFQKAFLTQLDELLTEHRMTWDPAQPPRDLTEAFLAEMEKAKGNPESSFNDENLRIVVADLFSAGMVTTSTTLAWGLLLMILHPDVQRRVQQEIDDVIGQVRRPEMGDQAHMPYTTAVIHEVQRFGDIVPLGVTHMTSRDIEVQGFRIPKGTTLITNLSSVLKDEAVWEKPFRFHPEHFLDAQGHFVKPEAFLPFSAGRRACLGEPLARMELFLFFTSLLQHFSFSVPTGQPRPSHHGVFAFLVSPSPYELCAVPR

[3] = system: Mus musculus; experiment: Antiseizure activity in iv dosed ICR mouse model of PTZ-induced acute seizure assessed as mortality rate preadministered for 1 min followed by PTZ treatment and measured for 7 days (reference value: 83.3%); assay type: functional; conditions: time 7 day
[4] = Toxicity in Sprague-Dawley rat assessed as Q-T interval prolongation at 19 mg/kg administered as continuous infusion followed by maintenance at 3.25 mg/kg/min for 0 to 20 mins, 2.5 mg/kg/min for 20 to 30 mins and 2 mg/kg/min for 30 to 60 mins by electrocardiogram recording; assay type: organism-based; conditions: in vivo, other, 1 h, route par
[5] = (§2) Toxicity in Sprague-Dawley rat assessed as effect on LDH level at 19 mg/kg administered as continuous infusion followed by maintenance at 3.25 mg/kg/min for 0 to 20 mins, 2.5 mg/kg/min for 20 to 30 mins and 2 mg/kg/min for 30 to 60 mins; assay type: organism-based; conditions: in vivo, other, 1 h, route par
[6] = target: GABA-A receptor; alpha-1/beta-2/gamma-2 (Homo sapiens) (UniProt P14867+P47870+P18507); experiment: Agonist activity at alpha1beta2gamma2 GABA-A receptor (unknown origin) at 10 uM at -70 mV holding potential by electrophysiological recording; assay type: protein-complex assay
[7] = as §2, with “effect on minute ventilation box at 19” for “effect on LDH level at 19”, “60 mins and measured every 5 mins for 60 mins by whole-body plethysmography” for “60 mins”; assay type: organism-based; conditions: in vivo, other, 1 h, route par
[8] = target: Cytochrome P450 3A4 (Homo sapiens, UniProt P08684); experiment: Inhibition of CYP3A4 (unknown origin) using midazolam as substrate at 10 uM; assay type: ADME
Sequence of Cytochrome P450 3A4 (P08684 whole entry, the tested form may be a part): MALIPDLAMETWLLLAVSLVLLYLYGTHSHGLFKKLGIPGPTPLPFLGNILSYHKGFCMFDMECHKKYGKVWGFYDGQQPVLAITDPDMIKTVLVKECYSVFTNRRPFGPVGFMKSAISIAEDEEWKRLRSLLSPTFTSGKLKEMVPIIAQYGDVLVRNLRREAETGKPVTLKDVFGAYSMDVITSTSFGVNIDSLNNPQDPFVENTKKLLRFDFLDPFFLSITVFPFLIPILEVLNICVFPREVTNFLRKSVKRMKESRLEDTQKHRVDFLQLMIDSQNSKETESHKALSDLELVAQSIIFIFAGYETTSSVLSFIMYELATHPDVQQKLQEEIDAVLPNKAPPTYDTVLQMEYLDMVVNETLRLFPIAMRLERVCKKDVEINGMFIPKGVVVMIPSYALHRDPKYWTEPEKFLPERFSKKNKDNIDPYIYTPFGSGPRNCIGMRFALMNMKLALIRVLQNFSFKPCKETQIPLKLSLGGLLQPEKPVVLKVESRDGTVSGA

[9] = Toxicity in Sprague-Dawley rat assessed as ALT level at 19 mg/kg administered as continuous infusion followed by maintenance at 3.25 mg/kg/min for 0 to 20 mins, 2.5 mg/kg/min for 20 to 30 mins and 2 mg/kg/min for 30 to 60 mins; assay type: organism-based; conditions: in vivo, other, 1 h, route par
[10] = target: Cytochrome P450 2C9 (Homo sapiens, UniProt P11712); experiment: Inhibition of CYP2C9 (unknown origin) using diclofenac as substrate at 10 uM; assay type: ADME
[11] = Drug metabolism in human liver microsomes assessed as propofol release by measuring half life at 1 mg/ml measured upto 360 mins by LC-MS analysis; assay type: ADME, Microsome; conditions: 6 h
[12] = system: DRG neuron; experiment: Modulation of CFA-induced male ICR mouse DRG neuron excitability assessed as reduction in resting membrane potential at 10 uM by whole cell […] assay; assay type: functional, cell-based
[13] = as §1, with “liver” for “heart”; assay type: organism-based; conditions: in vivo, other, 336 h, route par, time 14 day
[14] = target: Sodium channel protein type 9 subunit alpha (Homo sapiens, UniProt Q15858); experiment: Inhibition of Nav1.7 channel (unknown origin) at resting state at -120 mV conditioning pulse by voltage clamp electrophysiological recording
Sequence of Sodium channel protein type 9 subunit alpha (Q15858 whole entry, the tested form may be a part): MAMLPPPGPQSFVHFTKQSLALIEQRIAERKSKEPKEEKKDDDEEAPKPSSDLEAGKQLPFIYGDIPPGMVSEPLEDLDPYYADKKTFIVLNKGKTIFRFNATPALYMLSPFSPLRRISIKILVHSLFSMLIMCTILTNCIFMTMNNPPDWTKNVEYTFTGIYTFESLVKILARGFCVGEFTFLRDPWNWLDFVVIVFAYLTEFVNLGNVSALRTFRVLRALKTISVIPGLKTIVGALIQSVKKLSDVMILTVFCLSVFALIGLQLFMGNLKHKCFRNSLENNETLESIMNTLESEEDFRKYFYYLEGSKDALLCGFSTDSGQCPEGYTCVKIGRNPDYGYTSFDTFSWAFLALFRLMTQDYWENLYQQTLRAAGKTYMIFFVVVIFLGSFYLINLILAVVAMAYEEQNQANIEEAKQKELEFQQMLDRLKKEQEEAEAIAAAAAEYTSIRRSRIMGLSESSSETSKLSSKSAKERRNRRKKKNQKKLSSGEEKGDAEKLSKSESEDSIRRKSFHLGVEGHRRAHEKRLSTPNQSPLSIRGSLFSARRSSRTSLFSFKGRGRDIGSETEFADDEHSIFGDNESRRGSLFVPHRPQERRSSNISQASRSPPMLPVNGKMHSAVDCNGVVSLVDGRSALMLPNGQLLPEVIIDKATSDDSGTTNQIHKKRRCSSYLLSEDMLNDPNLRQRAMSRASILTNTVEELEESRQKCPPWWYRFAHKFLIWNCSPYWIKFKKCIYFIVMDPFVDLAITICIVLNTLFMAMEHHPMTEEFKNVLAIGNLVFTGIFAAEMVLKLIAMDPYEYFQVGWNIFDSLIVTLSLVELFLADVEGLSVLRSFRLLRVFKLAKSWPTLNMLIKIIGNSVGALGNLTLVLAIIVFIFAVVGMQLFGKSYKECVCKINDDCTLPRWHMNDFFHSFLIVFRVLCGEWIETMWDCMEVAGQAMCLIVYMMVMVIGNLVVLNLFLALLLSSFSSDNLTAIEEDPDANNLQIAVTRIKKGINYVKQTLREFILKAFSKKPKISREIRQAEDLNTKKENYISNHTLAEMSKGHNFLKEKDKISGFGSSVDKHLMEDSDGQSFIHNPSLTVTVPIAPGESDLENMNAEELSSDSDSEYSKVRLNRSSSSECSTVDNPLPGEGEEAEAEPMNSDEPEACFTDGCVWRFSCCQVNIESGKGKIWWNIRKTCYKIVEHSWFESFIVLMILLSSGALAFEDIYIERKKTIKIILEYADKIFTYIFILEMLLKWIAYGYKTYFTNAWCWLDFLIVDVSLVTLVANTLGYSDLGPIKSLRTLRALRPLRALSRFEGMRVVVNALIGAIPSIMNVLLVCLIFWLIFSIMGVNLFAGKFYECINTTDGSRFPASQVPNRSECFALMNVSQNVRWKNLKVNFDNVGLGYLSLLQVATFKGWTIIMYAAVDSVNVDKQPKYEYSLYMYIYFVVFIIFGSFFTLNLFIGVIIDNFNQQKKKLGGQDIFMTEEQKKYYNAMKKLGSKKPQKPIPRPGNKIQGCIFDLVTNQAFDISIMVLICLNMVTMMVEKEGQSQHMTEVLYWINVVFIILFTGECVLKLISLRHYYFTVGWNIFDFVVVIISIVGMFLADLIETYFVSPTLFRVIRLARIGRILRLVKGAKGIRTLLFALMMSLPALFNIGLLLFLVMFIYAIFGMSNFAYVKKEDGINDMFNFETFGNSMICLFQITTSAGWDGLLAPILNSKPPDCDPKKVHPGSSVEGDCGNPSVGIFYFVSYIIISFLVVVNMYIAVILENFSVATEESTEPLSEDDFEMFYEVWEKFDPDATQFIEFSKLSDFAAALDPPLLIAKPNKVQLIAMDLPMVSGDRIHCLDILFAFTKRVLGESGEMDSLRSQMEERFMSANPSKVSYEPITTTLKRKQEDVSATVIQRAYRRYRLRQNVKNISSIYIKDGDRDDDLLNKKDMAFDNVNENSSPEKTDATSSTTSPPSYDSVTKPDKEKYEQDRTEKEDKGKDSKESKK

[15] = Toxicity in Sprague-Dawley rat assessed as effect on AST level at 19 mg/kg administered as continuous infusion followed by maintenance at 3.25 mg/kg/min for 0 to 20 mins, 2.5 mg/kg/min for 20 to 30 mins and 2 mg/kg/min for 30 to 60 mins; assay type: organism-based; conditions: in vivo, other, 1 h, route par
[16] = system: Mus musculus; experiment: Antiseizure activity in iv dosed ICR mouse model of PTZ-induced acute seizure assessed as prolongation of latency time before onset of first convulsion preadministered for 1 min followed by PTZ treatment; assay type: functional, organism-based
[17] = system: Rattus norvegicus; experiment: Analgesic activity in Sprague-Dawley rat model of mechanical nociceptive irritation assessed as response to tail pinch at 19 mg/kg administered as continuous infusion followed by maintenance at 3.25 mg/kg/min for 0 to 20 mins, 2.5 mg/kg/min for 20 to 30 mins and 2 mg/kg/min for 30 to 60 mins; assay type: functional, organism-based; conditions: route par
[18] = Drug metabolism in mouse liver microsomes assessed as propofol release by measuring half life at 1 mg/ml measured upto 360 mins by LC-MS analysis; assay type: ADME, Microsome; conditions: 6 h
[19] = Toxicity in Sprague-Dawley rat assessed as reduction in heart rate at 19 mg/kg administered as continuous infusion followed by maintenance at 3.25 mg/kg/min for 0 to 20 mins, 2.5 mg/kg/min for 20 to 30 mins and 2 mg/kg/min for 30 to 60 mins by electrocardiogram recording; assay type: organism-based; parameters: scale not given: the % may be the effect or the level left; conditions: in vivo, other, 1 h, route par
[20] = system: Mus musculus; experiment: Antiseizure activity in iv dosed ICR mouse model of PTZ-induced acute seizure assessed as reduction in maximum seizure class preadministered for 1 min followed by PTZ treatment and measured for 15 mins by Racine's scale based analysis; assay type: functional, organism-based; conditions: time 16.0 min
[21] = system: DRG neuron; experiment: Modulation of CFA-induced male ICR mouse DRG neuron excitability assessed as reduction in action potential's rheobase at 10 uM by whole cell […] assay; assay type: functional, cell-based
[22] = Toxicity in Sprague-Dawley rat assessed as urea level at 19 mg/kg administered as continuous infusion followed by maintenance at 3.25 mg/kg/min for 0 to 20 mins, 2.5 mg/kg/min for 20 to 30 mins and 2 mg/kg/min for 30 to 60 mins; assay type: organism-based; conditions: in vivo, other, 1 h, route par
[23] = Toxicity in ICR mouse assessed as effect on biochemical parameters at 1.5 times ED50, iv administered as single dose; assay type: organism-based; conditions: in vivo
[24] = as §2, with “effect on end inspiratory pause at 19” for “effect on LDH level at 19”, “60 mins and measured every 5 mins for 60 mins by whole-body plethysmography” for “60 mins”; assay type: organism-based; conditions: in vivo, other, 1 h, route par
[25] = Toxicity in Sprague-Dawley rat assessed as effect on alpha-HBDH level at 19 mg/kg administered as continuous infusion followed by maintenance at 3.25 mg/kg/min for 0 to 20 mins, 2.5 mg/kg/min for 20 to 30 mins and 2 mg/kg/min for 30 to 60 mins; assay type: organism-based; conditions: in vivo, other, 1 h, route par
[26] = target: Sodium channel protein type 10 subunit alpha (Homo sapiens, UniProt Q9Y5Y9); experiment: Binding affinity to Nav1.8 (unknown origin) expressed in HEK293T cells assessed as retention time of compound at 1 mg/ml by cell membrane chromatography; assay type: cell membranes
Sequence of Sodium channel protein type 10 subunit alpha (Q9Y5Y9 whole entry, looked up): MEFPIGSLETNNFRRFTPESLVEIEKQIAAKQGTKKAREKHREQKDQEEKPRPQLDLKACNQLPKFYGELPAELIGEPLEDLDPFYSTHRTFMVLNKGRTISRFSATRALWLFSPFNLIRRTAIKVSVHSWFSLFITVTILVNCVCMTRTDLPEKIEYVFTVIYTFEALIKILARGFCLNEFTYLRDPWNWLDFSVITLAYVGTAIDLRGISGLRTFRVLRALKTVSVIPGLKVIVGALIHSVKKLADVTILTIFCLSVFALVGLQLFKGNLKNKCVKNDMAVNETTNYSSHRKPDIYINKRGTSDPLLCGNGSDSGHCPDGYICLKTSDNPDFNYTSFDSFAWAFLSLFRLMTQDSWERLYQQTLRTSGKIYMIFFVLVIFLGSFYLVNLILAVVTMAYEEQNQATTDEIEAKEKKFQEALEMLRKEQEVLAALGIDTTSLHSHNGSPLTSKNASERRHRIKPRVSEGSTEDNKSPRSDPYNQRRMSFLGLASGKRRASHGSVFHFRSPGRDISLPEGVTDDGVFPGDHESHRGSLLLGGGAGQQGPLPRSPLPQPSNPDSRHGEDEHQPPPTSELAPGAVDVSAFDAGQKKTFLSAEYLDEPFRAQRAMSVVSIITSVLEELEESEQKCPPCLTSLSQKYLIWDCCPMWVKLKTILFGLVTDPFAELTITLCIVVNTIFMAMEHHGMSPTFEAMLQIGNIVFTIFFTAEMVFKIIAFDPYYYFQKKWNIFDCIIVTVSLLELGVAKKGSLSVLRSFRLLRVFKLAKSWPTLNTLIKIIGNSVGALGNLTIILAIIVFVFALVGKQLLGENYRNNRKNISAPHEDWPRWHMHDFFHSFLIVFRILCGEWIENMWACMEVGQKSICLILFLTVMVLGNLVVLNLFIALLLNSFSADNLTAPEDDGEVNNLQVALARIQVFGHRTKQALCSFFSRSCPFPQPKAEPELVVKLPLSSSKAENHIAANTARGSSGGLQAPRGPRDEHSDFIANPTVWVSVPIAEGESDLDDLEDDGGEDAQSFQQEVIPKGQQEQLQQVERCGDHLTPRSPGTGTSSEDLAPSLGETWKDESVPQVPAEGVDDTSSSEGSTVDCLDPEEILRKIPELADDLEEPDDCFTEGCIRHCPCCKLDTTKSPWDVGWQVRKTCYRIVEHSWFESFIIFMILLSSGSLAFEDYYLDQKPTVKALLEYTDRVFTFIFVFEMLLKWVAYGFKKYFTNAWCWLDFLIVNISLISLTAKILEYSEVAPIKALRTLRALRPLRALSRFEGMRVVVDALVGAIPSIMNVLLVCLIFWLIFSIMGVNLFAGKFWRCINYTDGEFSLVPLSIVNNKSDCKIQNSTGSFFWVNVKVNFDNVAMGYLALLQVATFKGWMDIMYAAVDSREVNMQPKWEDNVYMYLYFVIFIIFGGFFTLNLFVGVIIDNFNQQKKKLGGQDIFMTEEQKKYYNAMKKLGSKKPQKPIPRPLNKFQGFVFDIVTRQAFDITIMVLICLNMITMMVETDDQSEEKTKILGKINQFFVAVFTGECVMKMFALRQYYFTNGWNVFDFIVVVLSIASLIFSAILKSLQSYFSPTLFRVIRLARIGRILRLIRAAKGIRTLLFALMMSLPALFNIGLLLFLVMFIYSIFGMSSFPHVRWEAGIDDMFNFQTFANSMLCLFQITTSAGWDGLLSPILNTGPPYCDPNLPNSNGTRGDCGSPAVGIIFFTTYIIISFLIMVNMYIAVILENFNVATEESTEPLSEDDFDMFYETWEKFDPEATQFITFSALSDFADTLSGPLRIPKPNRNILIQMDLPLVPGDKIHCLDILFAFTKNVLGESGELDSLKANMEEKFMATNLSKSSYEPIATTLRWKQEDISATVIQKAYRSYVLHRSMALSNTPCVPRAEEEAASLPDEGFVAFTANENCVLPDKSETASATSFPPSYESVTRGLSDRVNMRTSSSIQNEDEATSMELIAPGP

[27] = as §2, with “effect on end expiratory pause at 19” for “effect on LDH level at 19”, “60 mins and measured every 5 mins for 60 mins by whole-body plethysmography” for “60 mins”; assay type: organism-based; conditions: in vivo, other, 1 h, route par
[28] = Toxicity in ICR mouse assessed as survival rate at 1.5 times ED50 administered intravenously; conditions: in vivo, route iv
[29] = Drug metabolism in rat liver microsomes assessed as propofol release by measuring half life at 1 mg/ml measured upto 360 mins by LC-MS analysis; assay type: ADME, Microsome; conditions: 6 h
[30] = Stability of compound assessed as porcine liver esterase mediated propofol release by measuring half life at 1 mg/ml by HPLC analysis; assay type: ADME, Sus scrofa; conditions: pig, isolated protein

With `CCN(CC)CCOC(=O)Oc1c(C(C)C)cccc1C(C)C.Cl` the Activity [1] was “Non-Toxic”, the “inhibition (INH)” value [2] was “Not Active” and the Activity [3] was 0%. For the same compound, the Activity [4] was “Non-Toxic”, the Activity [5] was “Non-Toxic” and the Activity [6] was “inactive”. For the same compound, the Activity [7] was “Non-Toxic”, the “inhibition (INH)” value [8] was “Not Active” and the Activity [9] was 52.47 U/L. For the same compound, the “inhibition (INH)” value [10] was “Not Active”, the t1/2 [11] was 54.63 min and the Activity [12] was “inactive”. For the same compound, the Activity [13] was “Non-Toxic”, the IC50 [14] was greater than 30 µM and the Activity [15] was “Non-Toxic”. For the same compound, the Activity [16] was “Active”, the Activity [17] was “Active” and the t1/2 [18] was 45.98 min. The Activity [19] was less than 20%, the Activity [20] was “Active” and the Activity [21] was “inactive”. The Activity [22] was 11.03 mmol/L, the Activity [23] was “Non-Toxic” and the Activity [24] was “Non-Toxic”. The Activity [25] was “Non-Toxic”, the Retention time [26] was 112 min and the Activity [27] was “Non-Toxic”. For the same compound, the survival [28] was 100%, the t1/2 [29] was 81.09 min and the t1/2 [30] was 8.609 min.
